Data taken from US20090124659A1, “Combination therapy using 1-aminocyclohexane derivatives and acetylcholinesterase and inhibitors” (priority 2002, published 2009).
Counter-ions that a name gives are not always drawn.

Tests used:
[1] = test system: human neuroblastoma cells SK-N-SH; assay: APP processing in cultured SK-N-SH cells (Western immunoblotting or ELISA); type: cell-based; conditions: memantine 1-4 μM
Experimental: NMDA receptors have been also implicated in the signalling cascades affecting or affected by APP processing. […] The present inventor and co-workers have studied the effect of memantine (NMDA receptor antagonist) on the processing of APP in cultured human neuroblastoma cells SK-N-SH. Cells were treated with memantine (1-4 μM) or vehicle, and the levels of sAPP and βAP40 in the conditioned media and the total intracellular APP were measured by Western immunoblotting or ELISA using specific antibodies.

cytochrome P450 system = conditions: in vitro studies; cited from earlier work
[2] = cited from earlier work
healthy young subjects = conditions: single 10 mg memantine alone or with multiple daily doses of 10 mg donepezil
[3] = humans; cited from earlier work
[4] = test system: human neuroblastoma cells SK-N-SH; assay: Cell viability and toxicity, MTT and LDH assays; conditions: memantine 1-4 μM
clinical = conditions: both, human, plasma, po
[5] = test system: patients with moderate-to-severe AD; conditions: Week 24; memantine 20 mg/day or placebo added to stable donepezil
[6] = test system: patients with moderate-to-severe AD; conditions: Week 24; memantine 20 mg/day or placebo added to stable donepezil; remark: listed apart in the source
[7] = 5 mg/day for 28 days in healthy subjects; cited from earlier work
[8] = test system: patients with moderate-to-severe AD; conditions: Week 24; memantine 20 mg/day or placebo added to stable donepezil; remark: listed apart in the source
[9] = test system: patients with moderate-to-severe AD; conditions: 24 weeks; groups of 202 and 201
[10] = test system: human neuroblastoma cells; conditions: in the absence of any detectable cellular damage or toxicity; cited from earlier work

CC12CC3CC(C)(C1)CC(N)(C3)C2 [memantine, 1-amino-3,5-dimethyl adamantane]
levels of total intracellular APP [1]: without affecting
sAPP level in the conditioned media [1]: decrease
βAP40 level in the conditioned media [1]: decrease
potential of drug interactions with drugs metabolized via the cytochrome P450 system (cytochrome P450 system): low potential
dose recovered, mainly in the urine ([2]; after administration of 14C memantine): 84%
absolute bioavailability ([2]; in vivo, po): approximately 100%
half-life ([2]; in vivo): 60 to 80 h
safety and tolerability (healthy young subjects): safe and well-tolerated
therapeutically effective circulating concentration [3]: 1 µM
cell viability and toxicity (MTT and LDH assays) [4]: not affected
Cmax (clinical): 13 ng/mL
Cmax (clinical; 10 mg): 12.8 ng/mL
Tmax (clinical; 10 mg): 6.5 h

COc1cc2c(cc1OC)C(=O)C(CC1CCN(Cc3ccccc3)CC1)C2 (racemic) [donepezil, (R,S)-1-benzyl-4-[(5,6-dimethoxy-1-indanon)-2yl]-methylpiperidine hydrochloride]
SIB, change from Baseline to Endpoint (LOCF), LS mean change (SE) [5]: −2.5 (0.69)
ADCS-ADL, change from Baseline to Endpoint (LOCF), LS mean change (SE) [6]: −3.4 (0.51)
time of peak plasma concentrations [7]: approximately 3 hours
CIBIC-Plus at Endpoint (LOCF), LS mean (SD) [8]: 4.7 (1.05)
Agitation, % [9]: (11.9) %
Confusion, % [9]: (2.0) %
Constipation, % [9]: (1.5) %
Coughing, % [9]: (1.0) %
Depression, % [9]: (3.0) %
Diarrhoea, % [9]: (8.5) %
Dizziness, % [9]: (8.0) %
Fall, % [9]: (7.0) %
Fatigue, % [9]: (3.5) %
Gait abnormal, % [9]: (1.0) %
Headache, % [9]: (2.5) %
Hypertension, % [9]: (1.5) %
Inflicted injury, % [9]: (8.0) %
Influenza-like symptoms, % [9]: (6.5) %
Oedema peripheral, % [9]: (4.0) %
Pain, % [9]: (0.5) %
Pat. with any AE, % [9]: (71.6) %
Somnolence, % [9]: (3.5) %
Upper resp. tract infection, % [9]: (6.5) %
Urinary incontinence, % [9]: (3.0) %
Urinary tract infection, % [9]: (5.0) %
Vomiting, % [9]: (3.0) %

Cl.Nc1c2c(nc3ccccc13)CCCC2 [tacrine, 1,2,3,4-tetrahydro-9-aminoacridine hydrochloride]
release of sAPPα, total βAP, βAP40 and βAP42 [10]: reduce
